Assays:
Test in all cases: cells
Settings in all cases: Homo sapiens
COR-L88 = format: functional, cell-based;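 further: growth inhibition of COR-L88 cells, read out with a cell viability assay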
Description: SANGER: Inhibition of human COR-L88 cell growth in a cell viability assay.

CP66-MEL = format: functional, cell-based;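 further: growth inhibition of CP66-MEL cells determined in a cell viability assay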
Description: SANGER: Inhibition of human CP66-MEL cell growth in a cell viability assay.

CW-2 = format: functional, cell-based;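 further: growth inhibition of CW-2 cells, read out by a cell viability assay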
Description: SANGER: Inhibition of human CW-2 cell growth in a cell viability assay.

Calu-6 = format: functional, cell-based;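 further: growth of human Calu-6 cells, read out by a cell viability assay, IC50 marking inhibition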
Description: SANGER: Inhibition of human Calu-6 cell growth in a cell viability assay.

D283 Med = format: functional, cell-based
Description: SANGER: Inhibition of human D-283MED cell growth in a cell viability assay.

D-502MG = format: functional, cell-based
Description: SANGER: Inhibition of human D-502MG cell growth in a cell viability assay.

DB = format: functional, cell-based
Description: SANGER: Inhibition of human DB cell growth in a cell viability assay.

DEL = format: functional, cell-based;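 further: growth inhibition of the human DEL cell line, read out with a cell viability assay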
Description: SANGER: Inhibition of human DEL cell growth in a cell viability assay.

DOHH-2 = format: functional, cell-based;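 further: growth inhibition of human DOHH-2 cells, read out with a cell viability assay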
Description: SANGER: Inhibition of human DOHH-2 cell growth in a cell viability assay.

ES3 = format: functional, cell-based;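 further: growth inhibition of ES3 cells, read out with a cell viability assay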
Description: SANGER: Inhibition of human ES3 cell growth in a cell viability assay.

ES5 = format: functional, cell-based;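 further: growth inhibition of human ES5 cells, read out by a cell viability assay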
Description: SANGER: Inhibition of human ES5 cell growth in a cell viability assay.

ES8 = format: functional, cell-based;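 further: growth inhibition of human ES8 cells, read out with a cell viability assay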
Description: SANGER: Inhibition of human ES8 cell growth in a cell viability assay.

EW-1 = format: functional, cell-based;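 further: growth inhibition of the human EW-1 cell line, read out by a cell viability assay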
Description: SANGER: Inhibition of human EW-1 cell growth in a cell viability assay.

GAK = format: functional, cell-based;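 further: cell growth inhibition read out by a cell viability assay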
Description: SANGER: Inhibition of human GAK cell growth in a cell viability assay.

GI-ME-N = format: functional, cell-based;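 further: growth inhibition of human GI-ME-N cells, read out with a cell viability assay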
Description: SANGER: Inhibition of human GI-ME-N cell growth in a cell viability assay.

GT3TKB = format: functional, cell-based;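 further: growth inhibition of the cell line, read out with a cell viability assay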
Description: SANGER: Inhibition of human GT3TKB cell growth in a cell viability assay.

HH = format: functional, cell-based
Description: SANGER: Inhibition of human HH cell growth in a cell viability assay.

HL-60 = format: functional, cell-based;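 further: growth inhibition of human HL-60 cells, read out with a cell viability assay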
Description: SANGER: Inhibition of human HL-60 cell growth in a cell viability assay.

HT-144 = format: functional, cell-based
Description: SANGER: Inhibition of human HT-144 cell growth in a cell viability assay.

HuTu80 = format: functional, cell-based, HUTU-80;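 further: growth inhibition of HuTu80 human cells, determined with a cell viability readout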
Description: SANGER: Inhibition of human HUTU-80 cell growth in a cell viability assay.

IA-LM = format: functional, cell-based;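 further: cell viability assay measuring growth inhibition of human IA-LM cells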
Description: SANGER: Inhibition of human IA-LM cell growth in a cell viability assay.

IST-MES1 = format: functional, cell-based;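 further: growth inhibition of IST-MES1 cells, measured with a cell viability assay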
Description: SANGER: Inhibition of human IST-MES1 cell growth in a cell viability assay.

J-RT3-T3-5 = format: functional, cell-based;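 further: cell viability assay measuring growth inhibition of human J-RT3-T3-5 cells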
Description: SANGER: Inhibition of human J-RT3-T3-5 cell growth in a cell viability assay.

JAR = format: functional, cell-based;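 further: growth inhibition of human JAR cells determined with a cell viability assay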
Description: SANGER: Inhibition of human JAR cell growth in a cell viability assay.

JVM-2 = format: functional, cell-based;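 further: growth inhibition of JVM-2 cells determined by a cell viability assay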
Description: SANGER: Inhibition of human JVM-2 cell growth in a cell viability assay.

K5 = format: functional, cell-based
Description: SANGER: Inhibition of human K5 cell growth in a cell viability assay.

KALS-1 = format: functional, cell-based;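 further: growth inhibition of KALS-1 cells, determined with a cell viability assay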
Description: SANGER: Inhibition of human KALS-1 cell growth in a cell viability assay.

KARPAS-299 = format: functional, cell-based
Description: SANGER: Inhibition of human KARPAS-299 cell growth in a cell viability assay.

KARPAS-45 = format: functional, cell-based;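 further: inhibition of cell line growth, read out through a viability assay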
Description: SANGER: Inhibition of human KARPAS-45 cell growth in a cell viability assay.

KM12 = format: functional, cell-based;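 further: KM12 cell growth inhibition, read out with a cell viability assay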
Description: SANGER: Inhibition of human KM12 cell growth in a cell viability assay.

KMOE-2 = format: functional, cell-based;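 further: growth inhibition of human KMOE-2 cells, read out with a cell viability assay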
Description: SANGER: Inhibition of human KMOE-2 cell growth in a cell viability assay.

L-363 = format: functional, cell-based
Description: SANGER: Inhibition of human L-363 cell growth in a cell viability assay.

LAN-6 = format: functional, cell-based;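 further: growth inhibition of LAN-6 cells, determined with a cell viability assay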
Description: SANGER: Inhibition of human LAN-6 cell growth in a cell viability assay.

LB2518-MEL = format: functional, cell-based;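 further: growth inhibition of human LB2518-MEL cells, measured with a cell viability assay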
Description: SANGER: Inhibition of human LB2518-MEL cell growth in a cell viability assay.

LC-2-ad = format: functional, cell-based;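 further: growth inhibition of human LC-2-ad cells, read out with a cell viability assay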
Description: SANGER: Inhibition of human LC-2-ad cell growth in a cell viability assay.

LOX IMVI = format: functional, cell-based
Description: SANGER: Inhibition of human LOXIMVI cell growth in a cell viability assay.

LU-134-A = format: functional, cell-based
Description: SANGER: Inhibition of human LU-134-A cell growth in a cell viability assay.

Lu-65 = format: functional, cell-based;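 further: growth inhibition of Lu-65 cancer cells, read out by a cell viability assay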
Description: SANGER: Inhibition of human LU-65 cell growth in a cell viability assay.

MEG-01 = format: functional, cell-based;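 further: growth inhibition of MEG-01 cells, read out by a cell viability assay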
Description: SANGER: Inhibition of human MEG-01 cell growth in a cell viability assay.

MHH-PREB-1 = format: functional, cell-based;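 further: cell viability assay measuring inhibition of proliferation of human MHH-PREB-1 cells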
Description: SANGER: Inhibition of human MHH-PREB-1 cell growth in a cell viability assay.

MLMA = format: functional, cell-based;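 further: growth inhibition of MLMA cells (human), determined through a cell viability readout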
Description: SANGER: Inhibition of human MLMA cell growth in a cell viability assay.

MOLT-4 = format: functional, cell-based;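 further: growth inhibition of MOLT-4 cells, determined with a cell viability readout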
Description: SANGER: Inhibition of human MOLT-4 cell growth in a cell viability assay.

MV4-11 = format: functional, cell-based, MV-4-11;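 further: cell viability readout measuring growth inhibition of human MV-4-11 cells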
Description: SANGER: Inhibition of human MV-4-11 cell growth in a cell viability assay.

MZ7-mel = format: functional, cell-based;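 further: growth inhibition of human MZ7-mel cells, measured by a cell viability assay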
Description: SANGER: Inhibition of human MZ7-mel cell growth in a cell viability assay.

NCI-H1581 = format: functional, cell-based;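 further: cell growth inhibition read out by a viability assay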
Description: SANGER: Inhibition of human NCI-H1581 cell growth in a cell viability assay.

NCI-H1770 = format: functional, cell-based;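 further: growth inhibition of NCI-H1770 cells determined with a viability readout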
Description: SANGER: Inhibition of human NCI-H1770 cell growth in a cell viability assay.

SNU1 = format: functional, cell-based;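 further: growth inhibition of human NCI-SNU-1 cells, measured with a cell viability assay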
Description: SANGER: Inhibition of human NCI-SNU-1 cell growth in a cell viability assay.

NMC-G1 = format: functional, cell-based;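 further: growth inhibition of the NMC-G1 cell line, measured with a cell viability read-out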
Description: SANGER: Inhibition of human NMC-G1 cell growth in a cell viability assay.

NTERA-2-cl-D1 = format: functional, cell-based;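 further: inhibition of cell growth, measured with a cell viability assay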
Description: SANGER: Inhibition of human NTERA-S-cl-D1 cell growth in a cell viability assay.

OCUB-M = format: functional, cell-based;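 further: growth inhibition of the cancer cell line, read out through a cell viability assay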
Description: SANGER: Inhibition of human OCUB-M cell growth in a cell viability assay.

ONS-76 = format: functional, cell-based;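 further: growth inhibition of human ONS-76 cells, read out with a cell viability assay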
Description: SANGER: Inhibition of human ONS-76 cell growth in a cell viability assay.

OVCAR-4 = format: functional, cell-based;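 further: growth inhibition of human OVCAR-4 cells, measured with a cell viability assay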
Description: SANGER: Inhibition of human OVCAR-4 cell growth in a cell viability assay.

QIMR-WIL = format: functional, cell-based;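 further: growth inhibition of QIMR-WIL cells, read out with a cell viability assay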
Description: SANGER: Inhibition of human QIMR-WIL cell growth in a cell viability assay.

RPMI-8866 = format: functional, cell-based
Description: SANGER: Inhibition of human RPMI-8866 cell growth in a cell viability assay.

RXF 393 = format: functional, cell-based;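 further: growth inhibition of human RXF 393 cells, read out with a cell viability assay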
Description: SANGER: Inhibition of human RXF393 cell growth in a cell viability assay.

SBC-1 = format: functional, cell-based;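 further: cell viability assay measuring growth inhibition of the SBC-1 cell line, IC50 being the concentration that halves growth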
Description: SANGER: Inhibition of human SBC-1 cell growth in a cell viability assay.

SHP77 = format: functional, cell-based, SHP-77;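 further: growth inhibition of human SHP-77 cells measured by a cell viability assay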
Description: SANGER: Inhibition of human SHP-77 cell growth in a cell viability assay.

SK-N-FI = format: functional, cell-based;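 further: cell viability assay measuring growth inhibition of human SK-N-FI cells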
Description: SANGER: Inhibition of human SK-N-FI cell growth in a cell viability assay.

SK-PN-DW = format: functional, cell-based
Description: SANGER: Inhibition of human SK-PN-DW cell growth in a cell viability assay.

SW 962 = format: functional, cell-based
Description: SANGER: Inhibition of human SW962 cell growth in a cell viability assay.

A3-KAW = format: functional, cell-based
Description: SANGER: Inhibition of human A3-KAW cell growth in a cell viability assay.

A4-Fuk = format: functional, cell-based
Description: SANGER: Inhibition of human A4-Fuk cell growth in a cell viability assay.

A704 = format: functional, cell-based
Description: SANGER: Inhibition of human A704 cell growth in a cell viability assay.

TE-10 = format: functional, cell-based
Description: SANGER: Inhibition of human TE-10 cell growth in a cell viability assay.

TE-11 = format: functional, cell-based
Description: SANGER: Inhibition of human TE-11 cell growth in a cell viability assay.

UACC-257 = format: functional, cell-based
Description: SANGER: Inhibition of human UACC-257 cell growth in a cell viability assay.

Measured: IC50

CC(O)(CS(=O)(=O)c1ccc(F)cc1)C(=O)Nc1ccc(C#N)c(C(F)(F)F)c1 (stereo unspecified) [BICALUTAMIDE]
> 1020 nM: all assays above

— ChEMBL document CHEMBL1201861, “Genomics of Drug Sensitity in Cancer screening data, Wellcome Trust Sanger Institute”
